Counter-ions that a name gives are not always drawn.

This is an account of results in ChEMBL document CHEMBL4725376, “Identification of the first noncompetitive SARM1 inhibitors” (Bioorg Med Chem, 2020).

Holding throughout (type): subcellular
Test [1] deals with T1, NAD(+) hydrolase SARM1 (Homo sapiens) (UniProt Q6SZW1).
T1 sequence (whole entry): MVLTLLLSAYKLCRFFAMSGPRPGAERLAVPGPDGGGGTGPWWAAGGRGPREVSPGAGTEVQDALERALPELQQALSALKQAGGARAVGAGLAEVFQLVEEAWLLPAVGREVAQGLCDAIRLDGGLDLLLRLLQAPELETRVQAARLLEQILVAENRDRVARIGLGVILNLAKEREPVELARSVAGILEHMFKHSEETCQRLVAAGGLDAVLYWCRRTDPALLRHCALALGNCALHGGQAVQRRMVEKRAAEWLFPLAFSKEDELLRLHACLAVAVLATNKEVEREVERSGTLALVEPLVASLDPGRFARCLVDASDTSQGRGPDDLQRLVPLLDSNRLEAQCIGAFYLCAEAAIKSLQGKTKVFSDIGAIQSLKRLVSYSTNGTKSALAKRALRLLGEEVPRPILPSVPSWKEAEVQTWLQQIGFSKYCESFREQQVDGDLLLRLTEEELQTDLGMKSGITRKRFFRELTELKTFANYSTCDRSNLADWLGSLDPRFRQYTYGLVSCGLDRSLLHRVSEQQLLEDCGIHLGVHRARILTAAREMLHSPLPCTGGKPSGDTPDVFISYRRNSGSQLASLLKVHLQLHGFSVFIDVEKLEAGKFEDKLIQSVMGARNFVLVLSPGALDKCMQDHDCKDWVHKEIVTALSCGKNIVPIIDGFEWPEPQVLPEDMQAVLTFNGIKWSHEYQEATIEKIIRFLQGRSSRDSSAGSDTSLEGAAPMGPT
The test is described as follows: Inhibition of recombinant human SARM1 TIR domain (561 to 724 residues) expressed in Escherichia coli C43 (DE3) cells lysates using ENAD as substrate at 25 uM preincubated for 20 mins followed by ENAD addition and measured after 1 hr relative to control.

Test [2] concerns the target T2, NAD(+) hydrolase SARM1 (Homo sapiens, UniProt Q6SZW1).
T2 sequence (Q6SZW1 whole entry): T1 sequence (whole entry)
Description: Inhibition of recombinant human SARM1 TIR domain (561 to 724 residues) expressed in Escherichia coli C43 (DE3) cells lysates using ENAD as substrate preincubated for 20 mins followed by ENAD addition and measured at 15 sec interval for 15 mins.

Test [3] addresses T2, NAD(+) hydrolase SARM1. Description: Noncompetitive inhibition of recombinant human SARM1 TIR domain (561 to 724 residues) expressed in Escherichia coli C43 (DE3) cells lysates assessed as EADPR formation using ENAD as substrate preincubated for 20 mins followed by ENAD addition and measured at 15 sec interval for 1 hr.
In test [4] the target is T2, NAD(+) hydrolase SARM1. The test is described as follows: Competitive inhibition of recombinant human SARM1 TIR domain (561 to 724 residues) expressed in Escherichia coli C43 (DE3) cells lysates assessed as EADPR formation using ENAD as substrate preincubated for 20 mins followed by ENAD addition and measured at 15 sec interval for 1 hr.

Turning to `C[C@H]1c2cccc(O)c2C(=O)C2=C(O)[C@]3(O)C(=O)C(C(N)=O)=C(O)[C@@H](N(C)C)[C@@H]3[C@@H](O)[C@@H]21`, the inhibition in test [1] stood at 26%.
Regarding `NC(=O)N/N=C/c1ccc([N+](=O)[O-])o1` [NITROFURAZONE], the IC50 at NAD(+) hydrolase SARM1 [2] was found to be 90 µM. In addition, at NAD(+) hydrolase SARM1 [3], the Ki stood at 120 µM. The inhibition in test [1] worked out at 27%.
Regarding `Nc1ccc(/N=N/c2ccccc2)c(N)n1` [PHENAZOPYRIDINE HYDROCHLORIDE], on NAD(+) hydrolase SARM1 [4], the Ki was 70 µM. The inhibition in test [1] worked out at 44%.
